# According to patent publication US3948967A, “Aryl urea carbonates” (Velsicol Chemical Corporation, priority 1974, dated 1976):
# Tests used:
# Assay type in all cases: in vivo
# [1] = test system: Pigweed; assay: pre-emergence herbicidal activity, greenhouse pots; conditions: 8 lb. per acre, 15 to 21 days, scale 0 = no injury to 10 = death
# Experimental: (§1) In these experiments small plastic greenhouse pots filled with dry soil were seeded with California barnyardgrass, crabgrass, dock, downybrome, foxtail, Johnson grass, mustard weed, pigweed and velvetleaf. Twenty-four hours or less after seeding the pots were sprayed with water until the soil was wet and the test compounds formulated as aqueous emulsions of acetone solutions containing emulsifiers were sprayed at the rate of 8 lb. per acre on the surface of the soil.
# (§2) After spraying, the soil containers were placed in the greenhouse and provided with supplementary heat as required and daily or more frequent watering. The plants were maintained under these conditions for a period of from 15 to 21 days, at which time the condition of the plants and the degree of injury to the plants was rated on a scale of from 0 to 10, as follows: 0 = no injury, 1,2 = slight injury, 3,4 = moderate injury, 5,6 = moderately severe injury, 7,8,9 = severe injury and 10 = death.
# [2] = test system: Dock; assay: pre-emergence herbicidal activity, greenhouse pots; conditions: 8 lb. per acre, 15 to 21 days, scale 0 = no injury to 10 = death
# Experimental: as §1, §2
# [3] = test system: Velvetleaf; assay: pre-emergence herbicidal activity, greenhouse pots; conditions: 8 lb. per acre, 15 to 21 days, scale 0 = no injury to 10 = death
# Experimental: as §1, §2
# [4] = test system: California barnyardgrass; assay: pre-emergence herbicidal activity, greenhouse pots; conditions: 8 lb. per acre, 15 to 21 days, scale 0 = no injury to 10 = death
# Experimental: as §1, §2
# [5] = test system: Downybrome; assay: pre-emergence herbicidal activity, greenhouse pots; conditions: 8 lb. per acre, 15 to 21 days, scale 0 = no injury to 10 = death
# Experimental: as §1, §2
# [6] = test system: Mustard; assay: pre-emergence herbicidal activity, greenhouse pots; conditions: 8 lb. per acre, 15 to 21 days, scale 0 = no injury to 10 = death
# Experimental: as §1, §2
# [7] = test system: Foxtail; assay: pre-emergence herbicidal activity, greenhouse pots; conditions: 8 lb. per acre, 15 to 21 days, scale 0 = no injury to 10 = death
# Experimental: as §1, §2
# [8] = test system: Crabgrass; assay: pre-emergence herbicidal activity, greenhouse pots; conditions: 8 lb. per acre, 15 to 21 days, scale 0 = no injury to 10 = death
# Experimental: as §1, §2
# [9] = test system: Johnson grass; assay: pre-emergence herbicidal activity, greenhouse pots; conditions: 8 lb. per acre, 15 to 21 days, scale 0 = no injury to 10 = death
# Experimental: as §1, §2
# [10] = test system: Pigweed; assay: post-emergence herbicidal activity, foliage spray; conditions: 8 lb. per acre on foliage, 10 to 15 days, scale 0 = no injury to 10 = death
# Description: as §2
# (§3) In these experiments the compounds to be tested were formulated as aqueous emulsions and sprayed at the rate of 8 lb. per acre on the foliage of California barnyardgrass, crabgrass, dock, downybrome, foxtail, Johnson grass, mustard weed, pigweed and velvetleaf that had attained a prescribed size. After spraying the plants were placed in a greenhouse and watered daily or more frequently. Water was not applied to the foliage of the treated plants. The severity of the injury was determined 10 to 15 days after treatment and was rated on the scale of from 0 to 10 heretofore described.
# [11] = test system: Dock; assay: post-emergence herbicidal activity, foliage spray; conditions: 8 lb. per acre on foliage, 10 to 15 days, scale 0 = no injury to 10 = death
# Description: as §2, §3
# [12] = test system: Velvetleaf; assay: post-emergence herbicidal activity, foliage spray; conditions: 8 lb. per acre on foliage, 10 to 15 days, scale 0 = no injury to 10 = death
# Description: as §2, §3
# [13] = test system: California barnyardgrass; assay: post-emergence herbicidal activity, foliage spray; conditions: 8 lb. per acre on foliage, 10 to 15 days, scale 0 = no injury to 10 = death
# Description: as §2, §3
# [14] = test system: Downybrome; assay: post-emergence herbicidal activity, foliage spray; conditions: 8 lb. per acre on foliage, 10 to 15 days, scale 0 = no injury to 10 = death
# Description: as §2, §3
# [15] = test system: Mustard; assay: post-emergence herbicidal activity, foliage spray; conditions: 8 lb. per acre on foliage, 10 to 15 days, scale 0 = no injury to 10 = death
# Description: as §2, §3
# [16] = test system: Foxtail; assay: post-emergence herbicidal activity, foliage spray; conditions: 8 lb. per acre on foliage, 10 to 15 days, scale 0 = no injury to 10 = death
# Description: as §2, §3
# [17] = test system: Crabgrass; assay: post-emergence herbicidal activity, foliage spray; conditions: 8 lb. per acre on foliage, 10 to 15 days, scale 0 = no injury to 10 = death
# Description: as §2, §3
# [18] = test system: Johnson grass; assay: post-emergence herbicidal activity, foliage spray; conditions: 8 lb. per acre on foliage, 10 to 15 days, scale 0 = no injury to 10 = death
# Description: as §2, §3
# [19] = test system: leaf rust on wheat, Puccinia rubigo-vera; assay: control of leaf rust on wheat (soil watering); conditions: about 25 cc. soil watering, rated 7 to 10 days after inoculation vs untreated
# Experimental: The fungicidal utility of the compounds of this invention was illustrated by experiments carried out for the control of leaf rust on wheat, Puccinia rubigo-vera. In these experiments wheat plants were grown in soil until they were about 2-21/2 inches tall. The soil in which the plants were growing was then watered with about 25 cc. of a solution of the chemical in water. The plants were then placed in the greenhouse for about five days and inoculated with leaf rust spores by dusting the spores from diseased plants. After 7 to 10 days the growth of the fungus on the plants was measured and rated in comparison with plants inoculated but otherwise untreated.
Compound,"Injury Rating, Pre-Emergence [1]","Injury Rating, Pre-Emergence [2]","Injury Rating, Pre-Emergence [3]","Injury Rating, Pre-Emergence [4]","Injury Rating, Pre-Emergence [5]","Injury Rating, Pre-Emergence [6]","Injury Rating, Pre-Emergence [7]","Injury Rating, Pre-Emergence [8]","Injury Rating, Pre-Emergence [9]","Injury Rating, Post-Emergence [10]","Injury Rating, Post-Emergence [11]","Injury Rating, Post-Emergence [12]","Injury Rating, Post-Emergence [13]","Injury Rating, Post-Emergence [14]","Injury Rating, Post-Emergence [15]","Injury Rating, Post-Emergence [16]","Injury Rating, Post-Emergence [17]","Injury Rating, Post-Emergence [18]",% Control ([19]; 200 ppm actual compound),% Control ([19]; 1000 ppm actual compound)
"CNC(=O)N(OC(=O)OC)c1ccc(Cl)c(Cl)c1 [Example 1, 1-(3,4-Dichlorophenyl)-1-methoxycarbonyloxy-3-methylurea]",10,9.5,10,9.5,9,10,10,10,9,10,8,10,10,10,10,10,10,8,100%,
"CCOC(=O)ON(C(=O)NC)c1ccc(Cl)c(Cl)c1 [Example 2, 1-(3,4-Dichlorophenyl)-1-ethoxycarbonyloxy-3-methylurea]",10,9,10,10,9,10,10,10,8,10,9,10,10,10,10,10,10,8,100%,
"CCOC(=O)ON(C(=O)NC)c1cc(Cl)ccc1Cl [Example 3, 1-(2,5-Dichlorophenyl)-1-ethoxycarbonyloxy-3-methylurea]",,,,,,,,,,,,,,,,,,,,95%
